{
  "source": "paper PMC10685318",
  "about": "“Trans-cyclosulfamidate mannose-configured cyclitol allows isoform-dependent inhibition of GH47 α-D-mannosidases through a bump–hole strategy” (Chemical Science, 2023)",
  "key": {"[1]": {"test_system": "GH47 model enzyme from Caulobacter K31 strain", "assay": "Crystal soaks with WT GH47", "assay_type": "binding"}, "MAN2B1": {"target": "T1, MAN2B1 (Homo sapiens, UniProt O00754)", "T1 construct": "expressed in transfected cells", "T1 sequence (O00754 50-1011)": "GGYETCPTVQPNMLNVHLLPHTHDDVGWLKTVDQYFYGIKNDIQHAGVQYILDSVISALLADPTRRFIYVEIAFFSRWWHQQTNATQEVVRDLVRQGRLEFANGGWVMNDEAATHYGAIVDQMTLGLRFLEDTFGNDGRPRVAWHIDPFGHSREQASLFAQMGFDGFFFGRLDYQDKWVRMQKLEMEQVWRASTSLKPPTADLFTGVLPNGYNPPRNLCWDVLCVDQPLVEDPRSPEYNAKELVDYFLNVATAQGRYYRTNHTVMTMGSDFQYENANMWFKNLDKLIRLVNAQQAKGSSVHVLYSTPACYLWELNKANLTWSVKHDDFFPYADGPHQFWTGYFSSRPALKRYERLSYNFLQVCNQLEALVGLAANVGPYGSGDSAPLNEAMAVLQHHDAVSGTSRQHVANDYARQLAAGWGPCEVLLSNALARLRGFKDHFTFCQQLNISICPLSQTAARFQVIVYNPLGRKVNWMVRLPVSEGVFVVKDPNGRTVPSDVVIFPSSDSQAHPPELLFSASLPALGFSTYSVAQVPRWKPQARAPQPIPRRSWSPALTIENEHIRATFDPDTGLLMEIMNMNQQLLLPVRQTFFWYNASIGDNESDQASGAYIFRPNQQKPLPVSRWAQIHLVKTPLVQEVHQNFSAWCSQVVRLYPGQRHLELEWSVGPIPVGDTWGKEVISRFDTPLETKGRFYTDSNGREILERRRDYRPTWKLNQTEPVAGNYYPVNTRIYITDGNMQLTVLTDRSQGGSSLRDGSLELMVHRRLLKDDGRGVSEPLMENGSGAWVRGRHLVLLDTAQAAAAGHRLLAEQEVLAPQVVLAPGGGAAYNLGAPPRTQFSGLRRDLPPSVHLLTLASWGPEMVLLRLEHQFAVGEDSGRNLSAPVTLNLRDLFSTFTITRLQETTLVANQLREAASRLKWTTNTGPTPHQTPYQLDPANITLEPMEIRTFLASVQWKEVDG", "assay": "4-MU-α-man activity assay in overexpressed cell lysates", "assay_type": "biochemical"}},
  "data": [
    {"smiles": "O=S1(=O)N[C@@H]2[C@@H](O)[C@@H](O)[C@H](O)[C@@H](CO)[C@H]2O1", "note": "[compound 6, 1,6-trans-manno-cyclosulfamidate]", "values": [
      {"measurement": "binding in crystal soaks", "setting": "[1]", "result": "no binding"},
      {"measurement": "activity when the buffer was enriched with CoCl2", "setting": "MAN2B1; CoCl2", "result": "no activity"},
      {"measurement": "IC50", "setting": "MAN2B1; Zn2+", "result": "> 1000", "unit": "µM"}
    ]}
  ]
}
